Results reported in patent US4916118A, “Pharmaceutical administration systems containing chemotactic peptides” (Board of Regents, The University of Texas System, priority 1987, dated 1990).

Columns and labels:
[1] = test system: mouse peritoneal macrophages; test: In-vitro assay of macrophage mediated cytotoxicity ([125I]IdUrd radioactive release assay); format: cell-based; conditions: for cpm +/- S.D.: 10^-8 M FMLP, radioactivity of remaining viable target tumor cells
[2] = test system: mouse peritoneal macrophages; test: as above; format: cell-based
Experimental: FMLP was purchased from Sigma Chemical Co. The stock solution (10 mM) was made in methanol and stored at -70° before use. For free form use, the stock solution was diluted to concentrations between 10^-4 M and 10^-7 M with CMEM containing 5% FBS. […]
Macrophage mediated cytotoxicity was assessed by a radioactive release assay as described in Sone S. and Fidler I. J., Cell Immunology 57, 42 (1981). Target cells in exponential growth phase were incubated for 24 h in medium supplemented with [^125 I]IdUrd (0.2 μCi/ml; specific activity, 200 mCi/mmol; New England Nuclear, Boston, Mass.). The cells then were washed 3 times with warm HBSS to remove unbound radiolabel, harvested by a short trypsinization (0.25% Difco trypsin and 0.02% EDTA for 1 min at 37°), and resuspended in CMEM containing 5% FBS. Viable cells were plated into the wells containing macrophages to achieve a population density of 2500 macrophages and 250 tumor cells per sq mm (or an initial macrophage:target cell ratio of 10/1). At this population density, normal (untreated) macrophages are not cytotoxic to neoplastic cells. No significant differences were detected in the plating efficiency (binding) of [^125 I]IdUrd-labeled target cells to control or liposome-treated macrophage populations. Radiolabeled target cells also were plated alone as an additional control group. The macrophage-target cell cultures were refed with medium 24 h after the addition of the target cells to remove all nonplated cells and then were incubated for up to 3 days at 37°. At this time, the cultures were washed twice with HBSS to remove […], and the remaining viable, adherent cells were lysed with 0.1 ml of 0.1N NaOH. The lysate was absorbed in a cotton swab and placed directly into 10×75 mm tubes; radioactivity was measured in a gamma counter. […] The cytotoxic activity of the macrophages was calculated as follows: [formula] Experimental results were analyzed for their statistical significance by Student's 2-tailed t test.

SMILES: CSCC[C@H](NC=O)C(=O)N[C@@H](CC(C)C)C(=O)N[C@@H](Cc1ccccc1)C(=O)O [Free FMLP, N-formyl-L-methionyl-L-leucyl-L-phenylalanine]
- cpm +/- S.D. ([1]; Expt. I): 2567 + 70 cpm
- cpm +/- S.D. ([1]; Expt. II): 2441 + 32 cpm
- activation of mouse macrophages to lyse target tumor cells ([1]; all FMLP concentrations (10^-8 to 10^-4 M), 72 hours of co-cultivation): ineffective in rendering macrophages tumoricidal
- cpm +/- S.D. ([2]; 10^-4 M FMLP, Expt. I): 2478 + 74 cpm
- cpm +/- S.D. ([2]; 10^-4 M FMLP, Expt. II): 2263 + 361 cpm
- cpm +/- S.D. ([2]; 10^-5 M FMLP, Expt. I): 2619 + 82 cpm
- cpm +/- S.D. ([2]; 10^-5 M FMLP, Expt. II): 2455 + 106 cpm
- cpm +/- S.D. ([2]; 10^-6 M FMLP, Expt. I): 2633 + 61 cpm
- cpm +/- S.D. ([2]; 10^-6 M FMLP, Expt. II): 2408 + 32 cpm
- cpm +/- S.D. ([2]; 10^-7 M FMLP, Expt. I): 2559 + 109 cpm
- cpm +/- S.D. ([2]; 10^-7 M FMLP, Expt. II): 2298 + 178 cpm
